Measured values from PMC6199744, “Development of Chemical Proteomics for the Folateome and Analysis of the Kinetoplastid Folateome” (ACS Infectious Diseases, 2018).
Read-outs that look alike come from different tables or passages of the source.

Key:
Assay type in all cases: binding
[1] = target: T1, HeLa cell extract proteins (Homo sapiens, UniProt Q8IYS1)
T1 construct: endogenous in cells; host or cells: HeLa cell extract
T1 sequence (Q8IYS1 1-436): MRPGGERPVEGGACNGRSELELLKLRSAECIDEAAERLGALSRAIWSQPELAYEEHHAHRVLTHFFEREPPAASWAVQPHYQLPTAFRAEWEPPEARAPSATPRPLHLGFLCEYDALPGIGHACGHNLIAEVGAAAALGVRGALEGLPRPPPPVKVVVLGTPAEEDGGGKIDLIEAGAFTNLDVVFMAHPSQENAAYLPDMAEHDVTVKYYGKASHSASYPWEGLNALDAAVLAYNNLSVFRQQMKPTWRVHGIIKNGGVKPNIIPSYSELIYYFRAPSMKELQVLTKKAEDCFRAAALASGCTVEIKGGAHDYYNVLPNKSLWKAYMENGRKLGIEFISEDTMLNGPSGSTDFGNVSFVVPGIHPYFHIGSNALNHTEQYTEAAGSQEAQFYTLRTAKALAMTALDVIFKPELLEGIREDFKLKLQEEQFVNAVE

[2] = target: T2, HeLa cell extract proteins (Homo sapiens, UniProt P62633)
T2 construct: endogenous in cells; host or cells: HeLa cell extract

[3] = target: T3, HeLa cell extract proteins (Homo sapiens, UniProt P27348)
T3 construct: endogenous in cells; host or cells: HeLa cell extract
T3 sequence (P27348 1-245): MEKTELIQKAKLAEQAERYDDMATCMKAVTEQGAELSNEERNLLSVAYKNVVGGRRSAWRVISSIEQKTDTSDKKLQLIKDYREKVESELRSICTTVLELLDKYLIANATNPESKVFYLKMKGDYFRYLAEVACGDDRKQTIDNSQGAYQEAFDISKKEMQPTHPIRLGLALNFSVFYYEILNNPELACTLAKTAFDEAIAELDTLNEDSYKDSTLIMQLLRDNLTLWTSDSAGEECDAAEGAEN

[4] = target: T4, HeLa cell extract proteins (Homo sapiens, UniProt P06730)
T4 construct: endogenous in cells; host or cells: HeLa cell extract

[5] = target: T5, HeLa cell extract proteins (Homo sapiens, UniProt O43242)
T5 construct: endogenous in cells; host or cells: HeLa cell extract

[6] = target: T6, HeLa cell extract proteins (Homo sapiens, UniProt Q9Y679)
T6 construct: endogenous in cells; host or cells: HeLa cell extract
T6 sequence (Q9Y679 1-410): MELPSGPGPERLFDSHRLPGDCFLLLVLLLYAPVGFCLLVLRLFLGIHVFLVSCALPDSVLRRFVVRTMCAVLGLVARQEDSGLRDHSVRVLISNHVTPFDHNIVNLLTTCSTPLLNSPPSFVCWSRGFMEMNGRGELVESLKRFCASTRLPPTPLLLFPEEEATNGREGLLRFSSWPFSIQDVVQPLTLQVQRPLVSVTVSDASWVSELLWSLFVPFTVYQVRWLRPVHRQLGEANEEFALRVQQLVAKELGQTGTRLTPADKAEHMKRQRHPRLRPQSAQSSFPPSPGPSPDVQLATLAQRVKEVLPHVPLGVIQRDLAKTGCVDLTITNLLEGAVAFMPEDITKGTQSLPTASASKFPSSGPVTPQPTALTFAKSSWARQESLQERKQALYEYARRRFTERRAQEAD

[7] = target: T7, HeLa cell extract proteins (Homo sapiens, UniProt P49915)
T7 construct: endogenous in cells; host or cells: HeLa cell extract

[8] = target: T8, HeLa cell extract proteins (Homo sapiens, UniProt P13798)
T8 construct: endogenous in cells; host or cells: HeLa cell extract
T8 sequence (P13798 1-732): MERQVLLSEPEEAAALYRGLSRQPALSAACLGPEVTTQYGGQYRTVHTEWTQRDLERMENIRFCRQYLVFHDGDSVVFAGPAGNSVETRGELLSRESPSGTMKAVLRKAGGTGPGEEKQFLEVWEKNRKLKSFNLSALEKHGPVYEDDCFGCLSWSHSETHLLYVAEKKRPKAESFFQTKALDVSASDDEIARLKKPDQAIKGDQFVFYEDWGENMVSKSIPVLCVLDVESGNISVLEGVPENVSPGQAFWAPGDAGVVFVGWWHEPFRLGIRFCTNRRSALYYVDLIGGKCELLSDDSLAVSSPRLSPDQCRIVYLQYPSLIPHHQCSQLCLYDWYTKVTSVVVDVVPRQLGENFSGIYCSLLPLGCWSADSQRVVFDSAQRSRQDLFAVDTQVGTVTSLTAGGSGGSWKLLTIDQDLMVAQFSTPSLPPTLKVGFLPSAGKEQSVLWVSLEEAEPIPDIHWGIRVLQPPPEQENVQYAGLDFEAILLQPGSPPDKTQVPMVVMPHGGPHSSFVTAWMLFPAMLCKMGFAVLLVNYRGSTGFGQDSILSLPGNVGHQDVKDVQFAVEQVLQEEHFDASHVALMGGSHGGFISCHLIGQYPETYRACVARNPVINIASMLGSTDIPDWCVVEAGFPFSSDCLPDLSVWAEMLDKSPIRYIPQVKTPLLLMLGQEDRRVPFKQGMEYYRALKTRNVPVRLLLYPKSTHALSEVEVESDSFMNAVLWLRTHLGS

[9] = target: T9, HeLa cell extract proteins (Homo sapiens, UniProt Q13085)
T9 construct: endogenous in cells; host or cells: HeLa cell extract

[10] = target: T10, HeLa cell extract proteins (Homo sapiens, UniProt P48643)
T10 construct: endogenous in cells; host or cells: HeLa cell extract

[11] = HeLa, protein APEH (ACYLAMINO-ACID-RELEASING ENZYME)
[12] = HeLa, protein CCT5 (T-COMPLEX PROTEIN 1 SUBUNIT EPSILON.)

T2 sequence (P62633 whole entry): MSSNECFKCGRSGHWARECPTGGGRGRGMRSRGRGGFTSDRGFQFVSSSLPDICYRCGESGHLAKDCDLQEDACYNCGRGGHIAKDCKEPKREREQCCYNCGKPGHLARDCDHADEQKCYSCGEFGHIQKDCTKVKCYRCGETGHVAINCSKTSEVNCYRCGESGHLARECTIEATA
T4 sequence (P06730 whole entry): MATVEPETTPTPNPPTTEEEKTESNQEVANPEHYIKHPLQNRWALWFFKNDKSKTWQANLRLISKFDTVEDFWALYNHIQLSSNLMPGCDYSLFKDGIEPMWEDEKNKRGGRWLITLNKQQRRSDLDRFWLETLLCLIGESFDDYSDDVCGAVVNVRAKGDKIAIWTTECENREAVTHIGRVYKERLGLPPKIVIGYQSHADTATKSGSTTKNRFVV
T5 sequence (O43242 whole entry): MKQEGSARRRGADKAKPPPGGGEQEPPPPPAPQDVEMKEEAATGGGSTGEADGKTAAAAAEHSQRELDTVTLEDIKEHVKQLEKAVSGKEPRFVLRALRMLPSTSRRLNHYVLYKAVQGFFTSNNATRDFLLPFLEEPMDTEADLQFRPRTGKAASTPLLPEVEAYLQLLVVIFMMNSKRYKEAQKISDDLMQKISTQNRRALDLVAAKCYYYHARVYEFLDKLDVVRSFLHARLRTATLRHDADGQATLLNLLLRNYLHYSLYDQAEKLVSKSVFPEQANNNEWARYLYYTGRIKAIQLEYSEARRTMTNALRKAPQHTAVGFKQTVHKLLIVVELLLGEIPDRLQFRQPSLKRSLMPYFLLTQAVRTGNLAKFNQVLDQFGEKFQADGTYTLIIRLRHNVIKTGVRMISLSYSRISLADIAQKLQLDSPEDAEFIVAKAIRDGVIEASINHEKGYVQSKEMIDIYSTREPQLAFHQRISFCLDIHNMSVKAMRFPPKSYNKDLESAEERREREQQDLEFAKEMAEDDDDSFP
T10 sequence (P48643 whole entry): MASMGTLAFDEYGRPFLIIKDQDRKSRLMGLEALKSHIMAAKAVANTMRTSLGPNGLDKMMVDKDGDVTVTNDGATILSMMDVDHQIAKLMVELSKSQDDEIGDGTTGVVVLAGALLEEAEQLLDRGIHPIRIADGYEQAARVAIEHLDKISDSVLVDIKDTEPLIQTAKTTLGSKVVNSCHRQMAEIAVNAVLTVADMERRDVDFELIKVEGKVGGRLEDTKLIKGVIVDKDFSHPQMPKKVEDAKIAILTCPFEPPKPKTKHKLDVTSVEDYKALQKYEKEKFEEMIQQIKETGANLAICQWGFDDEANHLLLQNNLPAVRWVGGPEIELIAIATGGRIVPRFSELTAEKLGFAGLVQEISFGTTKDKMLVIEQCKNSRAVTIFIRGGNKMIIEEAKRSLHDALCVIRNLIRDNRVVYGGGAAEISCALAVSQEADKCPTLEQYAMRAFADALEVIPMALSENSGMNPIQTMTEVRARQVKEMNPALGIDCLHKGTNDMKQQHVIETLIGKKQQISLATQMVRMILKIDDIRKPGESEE
T7 sequence (P49915 whole entry): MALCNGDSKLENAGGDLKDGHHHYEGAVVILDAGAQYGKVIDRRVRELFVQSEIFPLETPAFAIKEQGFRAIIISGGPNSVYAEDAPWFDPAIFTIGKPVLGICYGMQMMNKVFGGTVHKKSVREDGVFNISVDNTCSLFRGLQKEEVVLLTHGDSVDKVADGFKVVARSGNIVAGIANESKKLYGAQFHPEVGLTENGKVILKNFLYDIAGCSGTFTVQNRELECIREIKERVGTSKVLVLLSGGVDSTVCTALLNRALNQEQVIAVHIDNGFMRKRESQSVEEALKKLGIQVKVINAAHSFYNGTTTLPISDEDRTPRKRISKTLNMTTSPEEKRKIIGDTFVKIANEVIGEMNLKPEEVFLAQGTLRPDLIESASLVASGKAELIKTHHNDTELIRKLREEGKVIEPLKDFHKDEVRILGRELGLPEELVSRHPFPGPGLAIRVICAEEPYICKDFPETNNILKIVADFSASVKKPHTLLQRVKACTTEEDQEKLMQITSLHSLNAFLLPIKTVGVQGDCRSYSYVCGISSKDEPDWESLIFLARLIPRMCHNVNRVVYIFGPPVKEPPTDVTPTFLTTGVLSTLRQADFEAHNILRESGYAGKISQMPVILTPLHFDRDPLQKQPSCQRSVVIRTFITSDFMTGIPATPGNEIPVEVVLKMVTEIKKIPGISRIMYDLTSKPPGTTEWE

## Nc1nc2c(c(=O)[nH]1)N(C=O)C(CNc1ccc(C(=O)N[C@@H](CCC(=O)O)C(=O)O)cc1)CN2 (stereo partly shown) [LEU, leucovorin]
[1]; HeLa, protein PM20D2
  fold changes relative to vehicle control: 0.9
[2]; HeLa, captured protein CNBP
  fold changes relative to vehicle control: 0.98
[3]; HeLa, protein YWHAQ
  fold changes relative to vehicle control: 1.08
[4]; HeLa, captured protein EIF4E
  fold changes relative to vehicle control: 1.09
[5]; protein PSMD3, HeLa
  fold changes relative to vehicle control: 1.08
[6]; HeLa, protein AUP1
  fold changes relative to vehicle control: 0.83
[7]; HeLa, protein GMPS
  fold changes relative to vehicle control: 0.93
[8]; [11]
  fold changes relative to vehicle control: 1.08
[9]; HeLa, captured protein ACACA
  fold changes relative to vehicle control: 1.02
[10]; HeLa, protein CCT5
  fold changes relative to vehicle control: 1.05

## NCCCNc1ccc(C(=O)NC(CCC(=O)O)C(=O)O)cc1 (stereo not shown) [compound 7]
[1]; HeLa, protein PM20D2
  fold changes relative to vehicle control: 0.89
[2]; HeLa, captured protein CNBP
  fold changes relative to vehicle control: 1.04
[3]; HeLa, protein YWHAQ
  fold changes relative to vehicle control: 0.86
[4]; HeLa, captured protein EIF4E
  fold changes relative to vehicle control: 1.1
[5]; protein PSMD3, HeLa
  fold changes relative to vehicle control: 1.02
[6]; HeLa, protein AUP1
  fold changes relative to vehicle control: 0.9
[7]; HeLa, protein GMPS
  fold changes relative to vehicle control: 1.11
[8]; [11]
  fold changes relative to vehicle control: 1
[9]; HeLa, captured protein ACACA
  fold changes relative to vehicle control: 1.17
[10]; HeLa, protein CCT5
  fold changes relative to vehicle control: 1.03

## CCCCCCOc1cccc(Cc2cnc(N)nc2N)c1 [compound 2]
[1]; captured protein PM20D2, HeLa
  fold changes relative to vehicle control: 0.9
[2]; protein CNBP, HeLa
  fold changes relative to vehicle control: 1.8
[3]; protein YWHAQ, HeLa
  fold changes relative to vehicle control: 2.29
[4]; HeLa, protein EIF4E
  fold changes relative to vehicle control: 0.97
[5]; protein PSMD3, HeLa
  fold changes relative to vehicle control: 1.51
[6]; captured protein AUP1, HeLa
  fold changes relative to vehicle control: 1.25
[7]; protein GMPS, HeLa
  fold changes relative to vehicle control: 1.94
[8]; HeLa, protein APEH
  fold changes relative to vehicle control: 0.91
[9]; protein ACACA, HeLa
  fold changes relative to vehicle control: 1.06
[10]; [12]
  fold changes relative to vehicle control: 1.97 fold

## CCCCCCOc1ccc(Cc2cnc(N)nc2N)cc1 [compound 1]
[1]; captured protein PM20D2, HeLa
  fold changes relative to vehicle control: 1.09
[2]; protein CNBP, HeLa
  fold changes relative to vehicle control: 1.26
[3]; protein YWHAQ, HeLa
  fold changes relative to vehicle control: 1.54
[4]; HeLa, protein EIF4E
  fold changes relative to vehicle control: 0.94
[5]; protein PSMD3, HeLa
  fold changes relative to vehicle control: 1.21
[6]; captured protein AUP1, HeLa
  fold changes relative to vehicle control: 0.98
[7]; protein GMPS, HeLa
  fold changes relative to vehicle control: 1.37
[8]; HeLa, protein APEH
  fold changes relative to vehicle control: 0.96
[9]; protein ACACA, HeLa
  fold changes relative to vehicle control: 1.09
[10]; [12]
  fold changes relative to vehicle control: 1.41 fold

## Nc1nc2cccc(-c3ccccc3)c2n1Cc1ccc(Cl)c(Cl)c1 [compound 3]
[1]; captured protein PM20D2, HeLa
  fold changes relative to vehicle control: 1.1
[2]; protein CNBP, HeLa
  fold changes relative to vehicle control: 0.83
[3]; protein YWHAQ, HeLa
  fold changes relative to vehicle control: 0.88
[4]; HeLa, protein EIF4E
  fold changes relative to vehicle control: 1
[5]; protein PSMD3, HeLa
  fold changes relative to vehicle control: 1.1
[6]; captured protein AUP1, HeLa
  fold changes relative to vehicle control: 0.9
[7]; protein GMPS, HeLa
  fold changes relative to vehicle control: 0.96
[8]; HeLa, protein APEH
  fold changes relative to vehicle control: 1.01
[9]; protein ACACA, HeLa
  fold changes relative to vehicle control: 1.04
[10]; [12]
  fold changes relative to vehicle control: 1.18 fold

## NCCOCCOCC(=O)Nc1nc2ncc(CNc3ccc(C(=O)NC(CCC(=O)O)C(=O)O)cc3)nc2c(=O)[nH]1 (stereo not shown) [compound 6]
[1]; HeLa, protein PM20D2
  fold changes relative to vehicle control: 1.05
[2]; HeLa, captured protein CNBP
  fold changes relative to vehicle control: 1.3
[3]; HeLa, protein YWHAQ
  fold changes relative to vehicle control: 1.15
[4]; HeLa, captured protein EIF4E
  fold changes relative to vehicle control: 1.03
[5]; protein PSMD3, HeLa
  fold changes relative to vehicle control: 1.17
[6]; HeLa, protein AUP1
  fold changes relative to vehicle control: 0.92
[7]; HeLa, protein GMPS
  fold changes relative to vehicle control: 1.24
[8]; [11]
  fold changes relative to vehicle control: 0.91
[9]; HeLa, captured protein ACACA
  fold changes relative to vehicle control: 1.12
[10]; HeLa, protein CCT5
  fold changes relative to vehicle control: 1.29

## Nc1nc2[nH]cc(CCc3ccc(C(=O)N[C@@H](CCC(=O)O)C(=O)O)cc3)c2c(=O)[nH]1 [PTX, pemetrexed]
[1]
  fold changes relative to vehicle control: 1
[2]
  fold changes relative to vehicle control: 1.14
[3]
  fold changes relative to vehicle control: 1.05
[4]
  fold changes relative to vehicle control: 0.99
[5]
  fold changes relative to vehicle control: 1.1
[6]
  fold changes relative to vehicle control: 0.89
[7]
  fold changes relative to vehicle control: 0.99
[8]
  fold changes relative to vehicle control: 0.96
[9]
  fold changes relative to vehicle control: 1.05
[10]
  fold changes relative to vehicle control: 1.13
